According to patent publication US12612410B2 (CHILDREN'S HOSPITAL MEDICAL CENTER, priority 2020, dated 2026):

Experiments:
[1] = tested on: MOLM14 F691L cells; experiment: MOLM14 F691L cell viability assay (Cell Titer Glo); format: cell-based; details: Homo sapiens, MOLM-14, 48 h
Summary of the method: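 MOLM14 cells carrying FLT3 D835Y or F691L were seeded at 1000 cells/well in RPMI-1640 with 20% FBS and dosed at 22 concentrations, 1:2 dilutions from 10 μM. Viability after 48 h by Cell Titer Glo luminescence; 2.3 μM bortezomib as cytotoxic control.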

[2] = biological target: T1, IRAK4 (Homo sapiens, UniProt Q9NWZ3); experiment: Reaction Biology NanoBRET target engagement assay, IRAK4; format: cell-based; details: transfected HEK-293 cells
T1 sequence (Q9NWZ3 1-460): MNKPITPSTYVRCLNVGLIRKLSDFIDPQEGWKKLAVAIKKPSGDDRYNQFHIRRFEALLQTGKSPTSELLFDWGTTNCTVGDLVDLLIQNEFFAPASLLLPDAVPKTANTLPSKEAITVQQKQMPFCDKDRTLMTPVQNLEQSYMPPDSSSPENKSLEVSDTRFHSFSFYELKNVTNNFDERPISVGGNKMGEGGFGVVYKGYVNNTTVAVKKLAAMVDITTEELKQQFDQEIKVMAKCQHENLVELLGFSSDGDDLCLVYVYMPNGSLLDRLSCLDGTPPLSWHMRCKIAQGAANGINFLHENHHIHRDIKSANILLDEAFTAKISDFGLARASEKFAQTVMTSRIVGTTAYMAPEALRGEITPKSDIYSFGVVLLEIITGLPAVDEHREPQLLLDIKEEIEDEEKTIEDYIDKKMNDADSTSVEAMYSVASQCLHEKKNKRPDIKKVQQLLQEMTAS
Text: The NanoBRET assay measures kinase engagement in real time in the context of the intact cell. Unlike the previously described biochemical kinase assay methodologies in Examples 26-27, the NanoBRET assay measures the binding and activity characteristics under equilibrium conditions using full-length kinases in the presence of cellular concentrations of ATP in live, uncompromised cells. As such, the assay provides a more relevant assessment of kinase potency and selectivity that would be expected to be observed in the native cellular environment, where potency is often considerably lower than that observed in the isolated biochemical assays (Vasta, J. D. et al., (2018) Cell Chem. Biol. 25, 206-214). The assay uses a Kinase-NanoLuc® fusion vector expressing a kinase protein to which a luciferase tag has been added, a cell-permeant fluorescent NanoBRET™ tracer, a NanoLuc® substrate, and an extracellular NanoLuc® inhibitor. Upon expression of the luciferase-tagged kinase, cells will produce a strong BRET signal only in the presence of the NanoBRET™ tracer. The extracellular NanoLuc® inhibitor ensures that the BRET signal observed emanates only from live cells. Because the BRET signal has tight distance constraints, addition of the test compound will decrease the BRET signal if the compound competes with the NanoBRET™ tracer for binding to the kinase domain. Under the appropriate tracer conditions established by the manufacturer, quantitative intracellular affinity and relative potency can then be determined using Mass Action model equations.
HEK-293 cells were purchased from ATCC. FuGENEHD Transfection Reagent, Kinase-NanoLucfusion plasmids, Transfection Carrier DNA, NanoBRETTracers and dilution buffer, NanoBRETNano-Glo Substrate, Extracellular NanoLucInhibitor were obtained from Promega.
Assays were conducted following Promega assay protocol with some modifications. HEK-293 Cells were transiently transfected with Kinase-NanoLucFusion Vector DNA by FuGENEHD Transfection Reagent. Testing compounds were delivered into 384 well assay plate by Echo 550 (Labcytelnc, Sunnyvale, CA). Transfected cells were harvested and mixed with NanoBRETTracer Reagent and dispensed into 384 well plates and incubated at 37° C. in 5% CO2 cell culture incubator for 1 hour. The NanoBRETNano-Glo Substrate plus Extracellular NanoLucInhibitor Solution were added into the wells of the assay plate and incubated for 2-3 minutes at room temperature. The donor emission wavelength (460 nm) and acceptor emission wavelength (600 nm) were measured in the EnVisionplate reader. The BRET Ratios were calculated. BRET Ratio=[(Acceptor sample÷Donor sample)−(Acceptor no-tracer control÷Donor no-tracer control)]. The IC50 values of compounds were calculated with Prism GraphPad program.
NanoBRET™ Target Engagement Assay Protocol
1. Transient Transfection of HEK-293 Cells NanoLuc® Fusion Vector DNA
• 1). Cultivate HEK-293 cells (70-80% confluence) appropriately prior to assay. Trypsinize and collect HEK-293 cells. • 2). Prepare lipid: DNA complexes as follows: • a. Prepare a […] solution of DNA in Opti-MEM without serum that consists of the following ratios of carrier DNA and DNA encoding NanoLuc® fusion. 9.0 µg/mL of Transfection Carrier DNA, […] of NanoLuc fusion vector DNA and 1 mL of Opti-MEM without phenol red. Mix thoroughly. • b. Add 30 l of FuGENE HD Transfection Reagent into each milliliter of DNA mixture to form lipid: DNA complex. • c. Mix by inversion 10 times. • d. Incubate at ambient temperature for 20 minutes to allow complexes to form. • 3). In a sterile, conical tube, mix 1 part of lipid: DNA complex with 20 parts of HEK-293 cells in suspension. Mix gently by inversion 5 times. • 4). Dispense cells+lipid: DNA complex into a sterile tissue culture dish and incubate for 22-24 hours. 2. Addition of Test Compounds (dry plate shooting)
Each test compound is delivered from the compound source plate to the wells of 384-well white NBS plate by Echo 550.
3. […]

Question: Which IC50 [1] does the source give for `O=C1CCCN1c1cn2c(-c3nc(N[C@H]4CNCC[C@@H]4F)c(F)cc3F)cnc2cn1` [Compound 107, 1-[3-[3,5-difluoro-6-[[(3S,4S)-4-fluoro-3-piperidyl]amino]-2-pyridyl]imidazo[1,2-a]pyrazin-6-yl]pyrrolidin-2-one] here?
Answer: 97 nM

Question: What about the IC50 [2] of the same compound?
Answer: 10 nM

Question: Which results are given for `O=C1CCCN1c1cn2c(-c3nc(N[C@@H]4CCCNC4)c(F)cc3F)cnc2cn1` [Compound 108, (R)-1-(3-(3,5-difluoro-6-(piperidin-3-ylamino)pyridin-2-yl)imidazo[1,2-a]pyrazin-6-yl)pyrrolidin-2-one]?
Answer: IC50 [1]: 183 nM; IC50 [2]: 1 nM

Question: For `O=C1CCCN1c1cn2c(-c3cccc(N[C@H]4CNCC[C@@H]4F)n3)cnc2cn1` [Compound 119, 1-(3-(6-(((3S,4S)-4-fluoropiperidin-3-yl)amino)pyridin-2-yl)imidazo[1,2-a]pyrazin-6-yl)pyrrolidin-2-one], which IC50 [1] is on record?
Answer: 54 nM

Question: And the IC50 [2]?
Answer: 2 nM

Question: Which results are given for `O=C1CCCN1c1cn2c(-c3cccc(N[C@H]4CNC[C@@H]4F)n3)cnc2cn1` [Compound 121, 1-(3-(6-(((3S,4S)-4-fluoropyrrolidin-3-yl)amino)pyridin-2-yl)imidazo[1,2-a]pyrazin-6-yl)pyrrolidin-2-one]?
Answer: IC50 [1]: 173 nM; IC50 [2]: 2 nM

Question: With `CC(C)(C)c1cn2c(-c3nc(N[C@H]4CNC[C@@H]4F)c(F)cc3F)cnc2cn1` [Compound 125] as the compound, how does the IC50 [1] read?
Answer: 2050 nM

Question: What about the IC50 [2] of the same compound?
Answer: < 0.5 nM

Question: With `CC(C)(C)c1cn2c(-c3nc(N[C@@H]4CCCNC4)c(F)cc3F)cnc2cn1` [Compound 126, (R)-6-(6-(tert-butyl)imidazo[1,2-a]pyrazin-3-yl)-3,5-difluoro-N-(piperidin-3-yl)pyridin-2-amine] as the compound, how does the IC50 [1] read?
Answer: 205 nM

Question: What about the IC50 [2] of the same compound?
Answer: < 0.5 nM

Question: For `CC(C)(C)c1cn2c(-c3nc(N[C@H]4CNCC[C@@H]4F)c(F)cc3F)cnc2cn1` [Compound 127, 6-(6-(tert-butyl)imidazo[1,2-a]pyrazin-3-yl)-3,5-difluoro-N-((3S,4S)-4-fluoropiperidin-3-yl)pyridin-2-amine], which IC50 [1] is on record?
Answer: 410 nM

Question: What about the IC50 [2] of the same compound?
Answer: 0.4 nM

Question: With `CC(C)(C)c1cn2c(-c3cccc(N[C@@H]4CCCNC4)n3)cnc2cn1` [Compound 129, (R)-6-(6-(tert-butyl)imidazo[1,2-a]pyrazin-3-yl)-N-(piperidin-3-yl)pyridin-2-amine] as the compound, how does the IC50 [1] read?
Answer: 163 nM

Question: What about the IC50 [2] of the same compound?
Answer: < 0.5 nM

Question: With `CC(C)(C)c1cn2c(-c3cccc(N[C@H]4CNCC[C@@H]4F)n3)cnc2cn1` [Compound 130, 6-(6-(tert-butyl)imidazo[1,2-a]pyrazin-3-yl)-N-((3S,4S)-4-fluoropiperidin-3-yl)pyridin-2-amine] as the compound, how does the IC50 [1] read?
Answer: 130 nM

Question: What about the IC50 [2] of the same compound?
Answer: < 0.5 nM
